Data on 26 compounds can be found in patent publication US12384780B2, “PARP1 inhibitors and uses thereof” (XinThera, Inc., priority 2022, dated 2025).

The test system of test [1] is MDA-MB-436 (mutated BRCA1) cells. Kind of test: Cell growth inhibition assay (CellTiter-Glo), MDA-MB-436. The format is cell-based. The conditions noted are these: 500 cells/well, 7 days, CellTiter Glo 2.0; for EC50: Homo sapiens, MDA-MB-436, 168 h, read-out: MDA-MB-436 pEC50 (converted). The procedure:
(§1) Cell proliferation was measured through the cell viability assay using DLD-1 BRCA2(−/−) and parental isogenic pair and MDA-MB-436 (mutated BRCA1) cell lines. The CellTiter-Glo (CTG) based cell viability assay is designed to determine the number of viable cells in the culture because of compound effect, by quantifying ATP, which indicates the presence of metabolically active cells.
(§2) DLD-1 BRCA2(−/−) and parental isogenic pair were cultured in RPMI 1640 supplemented with […] (FBS), and […] cells were cultured in DMEM supplemented with 10% FBS. Both were cultured at 37° C. with […]. Invention compounds were distributed to the 384 well plate (Corning, 3764) using Echo acoustic liquid handler to form a 1:3 serially diluted final concentration with top dose of 10 or 30 μM. The cells were seeded into the plate in the density of 50 cells/well (DLD-1 parental), 200 cells/well (DLD-1 BRCA2−/−), or 500 cells/well (MDA-MB-436). After a short spun, the cells were cultured in a well moisturized incubator at 37° C. with 5% CO2 for 7 days without disturbance. The cell viability was measured by CellTiter Glo 2.0 assay kit (Promega, G9243), and growth inhibition rate was calculated and plotted against final compound concentration, and the data were fitted in Xfit to generate IC50 values.
For orientation: In ATP-based viability assays light output follows the ATP content of the culture.

The target of a further test is T1, PARP1 (Homo sapiens, UniProt P09874).
T1 construct: made in house
T1 sequence (P09874 whole entry): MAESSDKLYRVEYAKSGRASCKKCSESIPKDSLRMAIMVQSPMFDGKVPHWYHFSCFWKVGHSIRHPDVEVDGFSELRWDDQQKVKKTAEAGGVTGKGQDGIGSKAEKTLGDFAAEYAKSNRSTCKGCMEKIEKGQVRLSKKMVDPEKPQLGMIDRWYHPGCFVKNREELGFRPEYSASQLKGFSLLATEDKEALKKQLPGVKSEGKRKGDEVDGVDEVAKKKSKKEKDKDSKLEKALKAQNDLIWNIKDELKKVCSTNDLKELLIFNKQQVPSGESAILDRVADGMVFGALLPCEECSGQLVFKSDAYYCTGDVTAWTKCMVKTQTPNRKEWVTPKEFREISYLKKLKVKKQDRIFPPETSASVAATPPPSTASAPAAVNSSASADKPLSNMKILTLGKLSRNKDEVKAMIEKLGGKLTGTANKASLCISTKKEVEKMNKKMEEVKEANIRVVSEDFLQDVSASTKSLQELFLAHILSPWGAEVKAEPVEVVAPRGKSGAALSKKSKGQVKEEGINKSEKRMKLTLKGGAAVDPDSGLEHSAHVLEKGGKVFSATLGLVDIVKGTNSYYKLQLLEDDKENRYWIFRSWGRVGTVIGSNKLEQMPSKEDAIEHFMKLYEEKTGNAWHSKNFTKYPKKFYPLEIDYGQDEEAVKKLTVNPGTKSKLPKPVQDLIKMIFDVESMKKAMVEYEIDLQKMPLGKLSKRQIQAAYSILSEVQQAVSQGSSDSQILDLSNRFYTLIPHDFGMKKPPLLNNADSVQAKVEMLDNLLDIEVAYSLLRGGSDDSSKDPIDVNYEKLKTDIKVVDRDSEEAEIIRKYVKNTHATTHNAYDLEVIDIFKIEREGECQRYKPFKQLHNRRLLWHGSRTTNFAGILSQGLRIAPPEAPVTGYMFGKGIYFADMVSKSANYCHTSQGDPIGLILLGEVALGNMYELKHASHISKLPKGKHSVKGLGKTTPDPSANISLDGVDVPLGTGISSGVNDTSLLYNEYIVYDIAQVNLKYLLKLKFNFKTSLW
Kind of test: Biochemical fluorescent polarization (FP) assay, displacement of PARPi-FL, PARP1. The format is binding. As to conditions: 20 nM protein, 3 nM PARPi-FL, 4 h at room temperature; for IC50: read-out: FP PARP1 pIC50 (converted). How it is done: (§3) Compounds were characterized using an assay measuring the displacement of a commercially available fluorescently labeled PARP 1/2 inhibitor (PARPi-FL, Tocris Biosciences, #6461) as exemplified in assays performed in WO2014/064149 and WO2021/013735A1. The assay was performed utilizing the following method: Compounds were dissolved in DMSO an Echo550 liquid handler was utilized to make serial dilations in the desired concentration range in Optiplate-384F plates. 100% DMSO was used for the high (with protein) and low (without protein) control samples. 20 nL of compound or DMSO alone was added to individual assay plate wells. PARP1 and PARP2 protein were expressed, purified, and diluted in assay buffer containing 50 mM Tris pH 8.0, 0.001% Triton X-100, 10 mM MgCl2, 150 mM NaCl to a final concentration of 20 nM. The PARPi-FL was then added at a final concentration of 3 nM. The assay plate was centrifuged at 1000 rpm for 1 min and incubated for 4 h at room temperature. […] [formula]

The target in another test is T2, PARP2 (Homo sapiens, UniProt Q9UGN5).
T2 construct: made in house
T2 sequence (Q9UGN5 whole entry): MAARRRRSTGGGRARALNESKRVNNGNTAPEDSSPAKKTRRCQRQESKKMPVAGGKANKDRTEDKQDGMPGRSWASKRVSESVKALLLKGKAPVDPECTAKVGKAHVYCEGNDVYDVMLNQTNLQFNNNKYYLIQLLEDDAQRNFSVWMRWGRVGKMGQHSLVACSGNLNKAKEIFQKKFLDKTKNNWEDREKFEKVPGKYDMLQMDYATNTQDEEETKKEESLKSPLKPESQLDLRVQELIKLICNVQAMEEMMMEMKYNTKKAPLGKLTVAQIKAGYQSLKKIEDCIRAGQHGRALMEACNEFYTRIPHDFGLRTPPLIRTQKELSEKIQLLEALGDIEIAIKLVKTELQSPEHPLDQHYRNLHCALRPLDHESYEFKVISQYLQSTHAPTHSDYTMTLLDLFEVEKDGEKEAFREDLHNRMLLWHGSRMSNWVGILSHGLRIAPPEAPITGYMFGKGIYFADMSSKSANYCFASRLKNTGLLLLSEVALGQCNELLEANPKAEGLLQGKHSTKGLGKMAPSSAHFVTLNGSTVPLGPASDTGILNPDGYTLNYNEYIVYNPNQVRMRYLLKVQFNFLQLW
Nature of the test: Biochemical fluorescent polarization (FP) assay, displacement of PARPi-FL, PARP2. It counts as binding. The conditions noted are these: 20 nM protein, 3 nM PARPi-FL, 4 h at room temperature; read-out: FP PARP2 pIC50 (converted). How it is done: as §3

A further test relates to DLD-1 BRCA2(−/−) cells. Nature of the test: Cell growth inhibition assay (CellTiter-Glo), DLD-1 BRCA2(−/−). It counts as cell-based. As to conditions: 200 cells/well, 7 days, CellTiter Glo 2.0; for EC50: Homo sapiens, DLD-1, 168 h, read-out: DLD-1 BRCA2(−/−) pEC50 (converted). The procedure:
as §1, §2

For the compound `N#Cc1ccc(N2CCN(Cc3cnc4cc(C5CC5)c(=O)[nH]c4c3)[C@H]3C[C@H]32)nc1` (single isomer, unassigned) [Example 20], the EC50 in test [1] was 39.8 nM; with DLD-1 BRCA2(−/−) cells, 50.1 nM. Moreover, the values for the IC50 on PARP1 and at PARP2 were 5.01 nM and 2510 nM, respectively.
Consider `Cc1cc2ncc([C@@H](C)N3CCN(c4ccc(C#N)cn4)[C@H](C)C3)cc2[nH]c1=O` (single isomer, unassigned) [Example 28, rel-6-[(2R)-2-methyl-4-[(1R*)-1-(7-methyl-6-oxo-5H-1,5-naphthyridin-3-yl)ethyl]piperazin-1-yl]pyridine-3-carbonitrile], for which the EC50 (in test [1]; in the test on DLD-1 BRCA2(−/−) cells) was 63.1 nM throughout. In addition, the IC50 on PARP1 is above 100 nM; on PARP2, above 100000 nM.
Take `Cc1cc2ncc([C@H](C)N3CCN(c4ccc(C#N)cn4)[C@H](C)C3)cc2[nH]c1=O` (single isomer, unassigned) [Example 29]: the EC50 in test [1] is 79.4 nM; with DLD-1 BRCA2(−/−) cells it was 63.1 nM. The IC50 on PARP1 is 6.31 nM; on PARP2 it was above 100000 nM.
Turning to `Cc1cc2ncc([C@H](C)N3CCN(c4ccc(C#N)cn4)CC3)cc2[nH]c1=O` (single isomer, unassigned) [Example 32], the figures for the EC50 (in test [1]; in the test on DLD-1 BRCA2(−/−) cells) were 7.94 nM and 12.6 nM, respectively. In addition, the IC50 was 3.98 nM at PARP1 and above 100000 nM on PARP2.
Regarding `Cc1cc2ncc([C@@H](C)N3CCN(c4ccc(C#N)cn4)CC3)cc2[nH]c1=O` (single isomer, unassigned) [Example 33], the values for the EC50 (in test [1]; in the test with DLD-1 BRCA2(−/−) cells) were 2.51 nM and 3.16 nM, respectively. Besides, the values for the IC50 at PARP1 and on PARP2 were 2.51 nM and 6310 nM, respectively.
For `N#Cc1ccc(N2CCN(Cc3cnc4cc(C5CCCO5)c(=O)[nH]c4c3)CC2)nc1` (single isomer, unassigned) [Example 68, 6-(4-{[6-oxo-7-(oxolan-2-yl)-5H-1,5-naphthyridin-3-yl]methyl}piperazin-1-yl)pyridine-3-carbonitrile], the figures for the EC50 (in test [1]; in the test on DLD-1 BRCA2(−/−) cells) were 25.1 nM and 39.8 nM, respectively. In addition, the IC50 on PARP1 is 12.6 nM; at PARP2 it was 79400 nM.
Regarding `N#Cc1ccc(N2CCN(Cc3cnc4cc(C5CCCO5)c(=O)[nH]c4c3)CC2)nc1` (single isomer, unassigned) [Example 69, 6-(4-{[6-oxo-7-(oxolan-2-yl)-5H-1,5-naphthyridin-3-yl]methyl}piperazin-1-yl)pyridine-3-carbonitrile], the “MDA-MB-436 pEC50” value in test [1] is reported as 7.8. Also, the IC50 on PARP1 was 10 nM; on PARP2 it was 39800 nM. The “DLD-1 BRCA2(−/−) pEC50” value with DLD-1 BRCA2(−/−) cells stood at 7.4.
Consider `Cc1c(Cl)c(=O)[nH]c2cc(CN3CCN(c4ccc(C#N)cc4)CC3)cnc12` [Example 2, 4-{4-[(7-chloro-8-methyl-6-oxo-5H-1,5-naphthyridin-3-yl)methyl]piperazin-1-yl}benzonitrile], for which the EC50 is 1.26 nM in test [1] and 1.58 nM with DLD-1 BRCA2(−/−) cells. Further, the IC50 at PARP1 is 50.1 nM; on PARP2 it was 7940 nM.
For `CCc1nc2c(F)cc(CN3CCN(c4ccc(C#N)cn4)CC3)cc2[nH]c1=O` [Example 5, 6-(4-((2-ethyl-8-fluoro-3-oxo-3,4-dihydroquinoxalin-6-yl)methyl)piperazin-1-yl)nicotinonitrile], the EC50 (in test [1]; in the test with DLD-1 BRCA2(−/−) cells) was 3.98 nM each time. The “FP PARP1 pIC50” value on PARP1 came to 8.5. Also, the IC50 at PARP2 was above 100000 nM.
Consider `CCc1cc2ncc(CN3CCN(c4ccc(Br)cn4)CC3)cc2[nH]c1=O` [Example 7], for which the EC50 (in test [1]; in the test on DLD-1 BRCA2(−/−) cells) was 6.31 nM each time. Besides, the IC50 at PARP1 is 25.1 nM; at PARP2, above 100000 nM.
Take `CCc1cc2ncc(CN3CCN(c4ccc(Cl)cn4)CC3)cc2[nH]c1=O` [Example 8]: the EC50 in test [1] is 3.16 nM; in the test with DLD-1 BRCA2(−/−) cells, 5.01 nM. The IC50 was 15.8 nM on PARP1 and above 100000 nM at PARP2.
Taken in the same sequence, the figures for `CCc1cc2ncc(CN3CCN(c4ccc(C#N)cc4)CC3)cc2[nH]c1=O` [Example 9] were 0.501 nM, 0.501 nM, 6.31 nM and 1580 nM.
Taken in the same sequence, the figures for `CCc1cc2ncc(CN3CCN(c4ccc(C#N)cn4)CC3)cc2[nH]c1=O` [Example 10] were 0.794 nM, 0.794 nM, 5.01 nM and 5010 nM.
In the case of `Cc1cc2ncc(CN3CCN(c4ccc(C#N)nc4)CC3)cc2[nH]c1=O` [Example 11], the EC50 is 39.8 nM in test [1] and 20 nM in the test with DLD-1 BRCA2(−/−) cells. Also, the IC50 at PARP1 was 10 nM; on PARP2 it was 79400 nM.
Regarding `Cc1cc2ncc(CN3CCN(c4cc(F)c(C#N)cc4F)CC3)cc2[nH]c1=O` [Example 13], the EC50 in test [1] is 3.98 nM; with DLD-1 BRCA2(−/−) cells, 5.01 nM. Besides, the IC50 was 5.01 nM at PARP1 and above 100000 nM on PARP2.
Turning to `O=c1[nH]c2cc(CN3CCN(c4ccc(F)cn4)CC3)cnc2cc1C1CC1` [Example 16, 3-cyclopropyl-7-{[4-(5-fluoropyridin-2-yl)piperazin-1-yl]methyl}-1H-1,5-naphthyridin-2-one], the EC50 (in test [1]; with DLD-1 BRCA2(−/−) cells) was 10 nM each time. In addition, at PARP1, the “FP PARP1 pIC50” value came out at 8.5. The IC50 at PARP2 was 2510 nM.
With `Cc1cc2ncc(CN3CCN(c4ccc(C#N)cc4F)CC3)cc2[nH]c1=O` [Example 18], the values for the EC50 (in test [1]; with DLD-1 BRCA2(−/−) cells) were 2.51 nM and 3.16 nM, respectively. Further, the IC50 at PARP1 was 5.01 nM; on PARP2 it was above 100000 nM.
For the compound `CCc1cc2ncc(CN3CCN(c4ccc(C#N)cn4)[C@H](C)C3)cc2[nH]c1=O` [Example 21], the results for the EC50 (in test [1]; in the test with DLD-1 BRCA2(−/−) cells) were 12.6 nM and 7.94 nM, respectively. Further, the IC50 at PARP1 was 5.01 nM; on PARP2, 1260 nM.
For `C[C@@H]1CN(Cc2cnc3cc(C4CC4)c(=O)[nH]c3c2)CCN1c1ccc(F)cn1` [Example 22], the EC50 in test [1] was 158 nM; in the test on DLD-1 BRCA2(−/−) cells, 126 nM. Further, the figures for the IC50 on PARP1 and on PARP2 were 7.94 nM and 12600 nM, respectively.
Consider `Cc1cc2ncc(CN3CCN(c4ccc(F)cn4)[C@H](C)C3)cc2[nH]c1=O` [Example 23], for which the EC50 is 200 nM in test [1] and 100 nM with DLD-1 BRCA2(−/−) cells. Moreover, the IC50 at PARP1 is 39.8 nM; on PARP2, above 100000 nM.
The corresponding values for `Cc1cc2ncc(CN3CCN(c4ccc(C#N)cn4)[C@H](C)C3)cc2[nH]c1=O` [Example 24] are 50.1 nM, 79.4 nM, 10 nM and above 100000 nM.
With `C[C@@H]1CN(Cc2cnc3cc(C4CC4)c(=O)[nH]c3c2)CCN1c1ccc(C#N)cn1` [Example 25], the figures for the EC50 (in test [1]; in the test on DLD-1 BRCA2(−/−) cells) were 50.1 nM and 31.6 nM, respectively. For the same compound, the results for the IC50 on PARP1 and at PARP2 were 6.31 nM and above 100000 nM, respectively.
The corresponding values for `Cc1cc2ncc(CN3CCN(c4ncc(F)cc4F)CC3)cc2[nH]c1=O` [Example 26] are above 1000 nM, above 1000 nM, above 100 nM and above 100000 nM.
Taken in the same sequence, the figures for `Cc1cc2ncc(CN3CCN(c4ccc(C#N)nc4C4CC4)CC3)cc2[nH]c1=O` [Example 27] were 39.8 nM, 12.6 nM, 7.94 nM and above 100000 nM.
As for `Cc1cc2ncc(CN3CCN(c4ncc(C#N)cc4F)CC3)cc2[nH]c1=O` [Example 30], the EC50 (in test [1]; in the test on DLD-1 BRCA2(−/−) cells) was above 1000 nM throughout. Further, the results for the IC50 on PARP1 and on PARP2 were 15.8 nM and above 100000 nM, respectively.
`Cc1cc2ncc(CN3CCN(c4ccc(C#N)nc4C(F)F)CC3)cc2[nH]c1=O` [Example 31]: the EC50 was 6.31 nM in test [1] and 15.8 nM in the test with DLD-1 BRCA2(−/−) cells. For the same compound, the figures for the IC50 at PARP1 and at PARP2 were 6.31 nM and above 100000 nM, respectively.
